The values that follow come from US20230084839A1, “ACTIVE AGENTS AGAINST CORONAVIRUS INFECTIONS AND DISEASES CAUSED THEREBY” (Eberhard Karls Universität Tübigen Medizinische Fakultät, priority 2020, published 2023).

Assay [1] concerns SARS-CoV-2. Type of assay: cell-based. The note with it: 48 hours post-infection, DAPI+ cell count.
Assay [2] deals with SARS-CoV-2. It counts as cell-based. The note with it: Calu3 cells; for reduction of the cytopathic effect caused by viral infection: Data series 1, SARS-CoV-2, 10 and 1 μM, compared with mock and infected; for inhibitory effects on the virus-induced cytopathic effect: Data series 2, concentrations 10 μM-0.3125 μM.

With `COc1cc2c(cc1-c1c(C)noc1C)ncc1[nH]c(=O)n([C@H](C)c3ccccn3)c12` [IBET151], in the assay with SARS-CoV-2 [1], the “concentration from which positive effects on the total number or survival of Calu3 cells after SARS-CoV-2 infection occur” value is “approximately 20 nM”. Further, in the assay with SARS-CoV-2 [2], the “reduction of the cytopathic effect caused by viral infection” value (“reduction” below) is listed as “significant reduction” and the “inhibitory effects on the virus-induced cytopathic effect” value was “still evident even at the lowest concentrations”.

`CN(C)C(=O)c1cc2cnc(Nc3ccc(N4CCNCC4)cn3)nc2n1C1CCCC1` [ribociclib, Ribociclib]: in the assay on SARS-CoV-2 [2], the “reduction” value is given as “no inhibitory effects”.

Take `CCN(CCO)CCCC(C)Nc1ccnc2cc(Cl)ccc12` (stereo not drawn) [hydroxychloroquine, Hydroxychloroquine]: in the assay with SARS-CoV-2 [1], the “positive effects on the total number or survival of Calu3 cells after SARS-CoV-2 infection” value was “not observed”. The “reduction” value in the assay with SARS-CoV-2 [2] is “no inhibitory effects”.

Turning to `Cc1sc2c(c1C)C(c1ccc(Cl)cc1)=N[C@@H](CC(N)=O)c1nnc(C)n1-2` [CPI203], in the assay on SARS-CoV-2 [1], the “concentration from which positive effects on the total number or survival of Calu3 cells after SARS-CoV-2 infection occur” value is listed as “approximately 20 nM”. In addition, in the assay on SARS-CoV-2 [2], the “reduction” value was “significant reduction” and the “inhibitory effects on the virus-induced cytopathic effect” value is reported as “still evident even at the lowest concentrations”.
